Reference: PubChem BioAssay AID1259408 (Genetic Toxicology Data Bank (GENE-TOX), 2018)
Activity calls are given as the source filed them. How the calls were made is not given here.

System: GENE-TOX genotoxicity assays, various organisms and cells
Test: GENE-TOX mutagenicity studies
Text: GENE-TOX provides genetic toxicology (mutagenicity) test data from expert peer review of open scientific literature for more than 3,000 chemicals from the United States Environmental Protection Agency (EPA). GENE-TOX was established to select assay systems for evaluation, review data in the scientific literature, and recommend proper testing protocols and evaluation procedures for these systems.
GENE-TOX covers the years 1991 - 1998. It is no longer updated.
This is an archive assay for GENE-TOX mutagenicity studies.

[1] = Species/Cell Type: Human lymphocytes, Assay Type: Sister-chromatid exchange (SCE) in vivo, Assay Code: SCY+, Evaluation Type: Evaluation B (Post-1980)
[2] = Species/Cell Type: Tradescantia species, Assay Type: Chromosome aberrations, Assay Code: TRC+, Evaluation Type: Evaluation A (Pre-1980)
[3] = Species/Cell Type: Drosophila melanogaster, Assay Type: Sex-linked recessive lethal gene mutation, Assay Code: SRLT, Evaluation Type: Evaluation A (Pre-1980)
[4] = Species/Cell Type: Mammalian polychromatic erythrocytes, Assay Type: Micronucleus test, chromosome aberrations, Assay Code: MNTT, Evaluation Type: Evaluation B (Post-1980)
[5] = Species/Cell Type: Chinese hamster lung (V79) cells, Assay Type: Forward gene mutation at the HPRT or ouabain locus, Assay Code: V79+, Evaluation Type: Evaluation A (Pre-1980)
[6] = Species/Cell Type: Salmonella typhimurium (one or more of the five standard strains: TA98, TA100, TA1535, TA1537, and TA1538), Assay Type: Histidine reverse gene mutation, Ames assay, Assay Code: SAL+, Evaluation Type: Evaluation A (Pre-1980)
[7] = Species/Cell Type: Chinese hamster lung (V79) cells, Assay Type: Forward gene mutation at the HPRT or ouabain locus, Assay Code: V79-, Evaluation Type: Evaluation A (Pre-1980)
[8] = Species/Cell Type: Drosophila melanogaster, Assay Type: Sex-linked recessive lethal gene mutation, Assay Code: SRL+, Evaluation Type: Evaluation A (Pre-1980)
[9] = Species/Cell Type: Human diploid fibroblasts, Assay Type: Unscheduled DNA synthesis (UDS) in vitro, DNA effects, Assay Code: UDH-, Evaluation Type: Evaluation A (Pre-1980)
[10] = Species/Cell Type: Salmonella typhimurium, Assay Type: Forward and reverse gene mutation, host-mediated assay, Assay Code: HMA-, Evaluation Type: Evaluation A (Pre-1980)
[11] = Species/Cell Type: Salmonella typhimurium (one or more of the five standard strains: TA98, TA100, TA1535, TA1537, and TA1538), Assay Type: Histidine reverse gene mutation, Ames assay, Assay Code: SALT, Evaluation Type: Evaluation A (Pre-1980)
[12] = Species/Cell Type: Salmonella typhimurium (one or more of the five standard strains: TA98, TA100, TA1535, TA1537, and TA1538), Assay Type: Histidine reverse gene mutation, Ames assay, Assay Code: SAL+*, Activation: With metabolic activation, Evaluation Type: Evaluation A (Pre-1980)
[13] = Species/Cell Type: Mammalian polychromatic erythrocytes, Assay Type: Micronucleus test, chromosome aberrations, Assay Code: MNTT, Evaluation Type: Evaluation A (Pre-1980)
[14] = Species/Cell Type: Mammalian polychromatic erythrocytes, Assay Type: Micronucleus test, chromosome aberrations, Assay Code: MNT+, Evaluation Type: Evaluation B (Post-1980)

In the case of O=S=O, the mutagenic call [1] is reported as “active; positive”, the mutagenic call [2] is reported as “active; positive” and the mutagenic call (Species/Cell Type: Tradescantia species, Assay Type: Gene mutation, Assay Code: TRM+D, Dose Response: With dose response, Evaluation Type: Evaluation A (Pre-1980)) is reported as “active; positive”.

For Nc1cccc2cc3ccccc3nc12, the mutagenic call (Species/Cell Type: Saccharomyces cerevisiae, Assay Type: Forward gene mutation, Assay Code: YEFT, Evaluation Type: Evaluation A (Pre-1980)) was “no conclusion” and the mutagenic call (Species/Cell Type: Saccharomyces cerevisiae, Assay Type: Reverse gene mutation, Assay Code: YERT, Evaluation Type: Evaluation A (Pre-1980)) was “no conclusion”.

O=Nn1c2ccccc2c2ccccc21 was tested, and the mutagenic call (Species/Cell Type: Rat primary hepatocytes, Assay Type: Unscheduled DNA synthesis (UDS) in vitro, DNA effects, Assay Code: UDP-, Evaluation Type: Evaluation A (Pre-1980)) was “inactive; negative”.

In the case of Nc1ccnc(=O)[nH]1, the mutagenic call [3] is reported as “no conclusion”.

With CC(=O)NNC(C)=O the mutagenic call [4] was “no conclusion”.

COC(C)[C@](O)(C(=O)O)C(C)C (stereo partly drawn) was tested, and the mutagenic call [3] was “no conclusion”.

In the case of Cc1c2c(c(C)c3c1ccc1ccccc13)[C@@H]1OC1[C@@H](O)[C@@H]2O (stereo partly drawn), the mutagenic call [5] is reported as “active; positive”.

With CN1CCN(c2ccc([N+](=O)[O-])c3no[n+]([O-])c23)CC1 the mutagenic call [6] was “active; positive”.

With O=C1CNCC(=O)N1C1CC1N1C(=O)CNCC1=O (stereo not drawn) the mutagenic call [7] was “inactive; negative”.

With O=C1c2ccccc2C(=O)N1SC(Cl)(Cl)Cl the mutagenic call (Species/Cell Type: Bacillus subtilis (H17 vs M45), Assay Type: Rec-assay, spot test, DNA effects (bacterial DNA repair), Assay Code: REWT, Evaluation Type: Evaluation A (Pre-1980)) was “no conclusion”, the mutagenic call (Species/Cell Type: Chinese hamster ovary (CHO) cells, Assay Type: Forward gene mutation at the HPRT locus, Assay Code: CHO+, Evaluation Type: Evaluation B (Post-1980)) was “active; positive” and the mutagenic call [8] was “active; positive”. The mutagenic call (Species/Cell Type: Escherichia coli WP2, Assay Type: Tryptophan reverse gene mutation, Assay Code: WP2+, Evaluation Type: Evaluation A (Pre-1980)) was “active; positive”, the mutagenic call (Species/Cell Type: Escherichia coli WP2 UVRA, Assay Type: Tryptophan reverse gene mutation, Assay Code: WPU+/-*, Activation: With metabolic activation, Evaluation Type: Evaluation A (Pre-1980)) was “inactive; positive without activation, negative with activation” and the mutagenic call (Species/Cell Type: Escherichia coli polA (W3119 vs P3478), Assay Type: Rec-assay, DNA effects (bacterial DNA repair), Assay Code: RE1+, Evaluation Type: Evaluation A (Pre-1980)) was “active; positive”. The mutagenic call [9] was “inactive; negative”, the mutagenic call (Species/Cell Type: Rodents, Sex: Male, Assay Type: Dominant lethal test, Assay Code: DLTT, Evaluation Type: Evaluation A (Pre-1980)) was “no conclusion” and the mutagenic call (Species/Cell Type: Saccharomyces cerevisiae, Assay Type: Mitotic recombination or gene conversion, Assay Code: YEC+, Evaluation Type: Evaluation A (Pre-1980)) was “active; positive”. For the same molecule, the mutagenic call (Species/Cell Type: Saccharomyces cerevisiae, Assay Type: Mitotic recombination or gene conversion, Assay Code: YEH+, Evaluation Type: Evaluation A (Pre-1980)) was “active; positive”, the mutagenic call [6] was “active; positive” and the mutagenic call [10] was “inactive; negative”.

For COc1ccc(CCC(=O)c2c(O)cc(O)cc2O)cc1O, the mutagenic call [4] was “no conclusion”.

With NC(=O)N(CC(=O)O)N=O the mutagenic call [11] was “no conclusion”.

CC(=O)O[C@H]1C[C@@H]2CC[C@@H]3[C@H](CC[C@@]4(C)[C@H]3C[C@H]([N+]3(C)CCCCC3)[C@@H]4OC(C)=O)[C@@]2(C)C[C@@H]1[N+]1(C)CCCCC1 was tested, and the mutagenic call [11] was “no conclusion”.

For CC(C)(O)CCc1ccc(O)c2c(=O)c3c(O)c4c(cc3oc12)O[C@H]1OC=C[C@@]41O, the mutagenic call [12] was “active; positive”.

In the case of CC1=C(/C=C/C(C)=C/C=C/C(C)=C/COc2ccccc2)C(C)(C)CCC1, the mutagenic call (Species/Cell Type: Human, Assay Type: Sister-chromatid exchange (SCE) in vitro, Assay Code: SC1+D, Dose Response: With dose response, Evaluation Type: Evaluation B (Post-1980)) is reported as “active; positive”.

In the case of C=C=O, the mutagenic call [6] is reported as “active; positive” and the mutagenic call [2] is reported as “active; positive”.

Cn1c([N+](=O)[O-])cnc1COC(N)=O was tested, and the mutagenic call [13] was “no conclusion”, the mutagenic call (Species/Cell Type: Rodents, Sex: Male, Assay Type: Dominant lethal test, Assay Code: DLT-, Evaluation Type: Evaluation A (Pre-1980)) was “inactive; negative” and the mutagenic call [6] was “active; positive”.

For O=C=Nc1ccc(Nc2ccc([N+](=O)[O-])cc2)cc1, the mutagenic call [11] was “no conclusion”.

With Cc1ccc2cc3c(ccc4ccccc43)c3c2c1CC3=O the mutagenic call [5] was “active; positive”, the call (Species/Cell Type: Nonhuman, Assay Type: In vivo carcinogenicity studies, Assay Code: CCGT, Evaluation Type: Evaluation A (Pre-1980)) was “no conclusion” and the mutagenic call [12] was “active; positive”.

With O=C1c2cc(O)cc(O)c2C(=O)c2c1cc1c(c2O)[C@@H]2C=CO[C@@H]2O1 the mutagenic call [12] was “active; positive”.

O=C1NC(=O)C(c2ccccc2)(c2ccccc2)N1 was tested, and the mutagenic call [1] was “active; positive”, the mutagenic call (Species/Cell Type: Human, Sex: Male, Assay Type: Sperm morphology, Assay Code: SPHT, Evaluation Type: Evaluation A (Pre-1980)) was “no conclusion” and the mutagenic call [14] was “active; positive”. For the same molecule, the mutagenic call [4] was “no conclusion” and the mutagenic call (Species/Cell Type: Nonhuman, Assay Type: Sister-chromatid exchange (SCE) in vivo, Assay Code: SC3+, Evaluation Type: Evaluation B (Post-1980)) was “active; positive”.

For N#Cc1cccc2ccccc12, the mutagenic call (Species/Cell Type: Allium cepa, Assay Type: Chromosome aberrations, Assay Code: ALC+D, Dose Response: With dose response, Evaluation Type: Evaluation A (Pre-1980)) was “active; positive”.

In the case of COc1cc(C(=O)CCN2CCCCC2)ccc1O, the mutagenic call [10] is reported as “inactive; negative”.

In the case of O=C1O[C@H]([C@@H](O)CO)C(O)=C1O, the mutagenic call (Species/Cell Type: Human lymphocytes, Assay Type: Sister-chromatid exchange (SCE) in vitro, Assay Code: SCL+, Evaluation Type: Evaluation A (Pre-1980)) is reported as “active; positive”, the mutagenic call (Species/Cell Type: Human lymphocytes, Assay Type: Sister-chromatid exchange (SCE) in vitro, Assay Code: SCLT, Evaluation Type: Evaluation B (Post-1980)) is reported as “no conclusion” and the mutagenic call (Species/Cell Type: Human, Assay Type: Sister-chromatid exchange (SCE) in vitro, Assay Code: SC1+, Evaluation Type: Evaluation A (Pre-1980)) is reported as “active; positive”. The mutagenic call (Species/Cell Type: Human, Assay Type: Sister-chromatid exchange (SCE) in vitro, Assay Code: SC1T, Evaluation Type: Evaluation B (Post-1980)) was “no conclusion”, the mutagenic call [13] was “no conclusion” and the mutagenic call (Species/Cell Type: Mouse, Sex: Male, Assay Type: Sperm morphology, Assay Code: SPI-, Evaluation Type: Evaluation A (Pre-1980)) was “inactive; negative”. For the same molecule, the mutagenic call (Species/Cell Type: Nonhuman, Assay Type: Sister-chromatid exchange (SCE) in vitro, Assay Code: SC2+, Evaluation Type: Evaluation A (Pre-1980)) was “active; positive”, the mutagenic call (Species/Cell Type: Nonhuman, Assay Type: Sister-chromatid exchange (SCE) in vitro, Assay Code: SC2+D, Dose Response: With dose response, Evaluation Type: Evaluation B (Post-1980)) was “active; positive” and the mutagenic call (Species/Cell Type: Nonhuman, Assay Type: Sister-chromatid exchange (SCE) in vivo, Assay Code: SC3T, Evaluation Type: Evaluation B (Post-1980)) was “no conclusion”. The mutagenic call [11] was “no conclusion”.

C=CCN=C=S was tested, and the mutagenic call [8] was “active; positive” and the mutagenic call (Species/Cell Type: Drosophila melanogaster, Assay Type: Sex-linked recessive lethal gene mutation, Assay Code: SRL-, Evaluation Type: Evaluation A (Pre-1980)) was “inactive; negative”.

For O=C(O)C(Cl)(Cl)Cl, the mutagenic call [14] was “active; positive”, the mutagenic call [11] was “no conclusion” and the mutagenic call (Species/Cell Type: Vicia faba, Assay Type: Chromosome aberrations, Assay Code: VIC+, Evaluation Type: Evaluation A (Pre-1980)) was “active; positive”.

In the case of CC1(C)C(C=C(Cl)Cl)C1C(=O)OCc1cccc(Oc2ccccc2)c1 (stereo not drawn), the mutagenic call [9] is reported as “inactive; negative” and the mutagenic call (Species/Cell Type: Saccharomyces cerevisiae, Assay Type: Mitotic recombination or gene conversion, Assay Code: YEH-, Evaluation Type: Evaluation A (Pre-1980)) is reported as “inactive; negative”.

With Nc1ccn([C@H]2C[C@H](O)[C@@H](CO)O2)c(=O)n1 the mutagenic call [7] was “inactive; negative”, the mutagenic call (Species/Cell Type: Glycine max (soybean), Assay Type: Gene mutation, Assay Code: GLM-, Evaluation Type: Evaluation A (Pre-1980)) was “inactive; negative” and the mutagenic call (Species/Cell Type: Human lymphocytes, Assay Type: Sister-chromatid exchange (SCE) in vitro, Assay Code: SCLT, Evaluation Type: Evaluation A (Pre-1980)) was “no conclusion”. The mutagenic call (Species/Cell Type: Human, Assay Type: Sister-chromatid exchange (SCE) in vitro, Assay Code: SC1T, Evaluation Type: Evaluation A (Pre-1980)) was “no conclusion” and the mutagenic call (Species/Cell Type: Nonhuman, Assay Type: Sister-chromatid exchange (SCE) in vitro, Assay Code: SC2T, Evaluation Type: Evaluation B (Post-1980)) was “no conclusion”.
